Data: patent US20140350078A1, “CONTROLLING REGULATORY T CELL FUNCTION” (NEW YORK UNIVERSITY, priority 2011, published 2014)

What was measured:
[1] = system: Dlgh1 recruitment to the IS in Tregs; assay: Dlgh1 recruitment to the immunological synapse on planar lipid bilayers, imaged by TIRFM; assay type: cell-based, human; conditions: Tregs from healthy donors, 50 ng/mL overnight
Procedure: Planar lipid bilayers containing anti-CD3 antibodies (5 μg/mL) and ICAM-1 (250 molecules per mm^2) were prepared in parallel-plate flow cells as described (Zanin-Zhorov et al., “Protein Kinase C-Theta Mediates Negative Feedback on Regulatory T Cell Function,” Science 328:372-376 (2010), which is hereby incorporated by reference in its entirety). The flow cell containing the bilayers was warmed up to 37° C.; cells were injected in 500 μL of Hepes-buffered saline containing 1% human serum albumin; and images were collected on a custom automated Nikon inverted fluorescence microscope.
All TIRF imaging was performed on the custom automated Nikon inverted fluorescence microscope using the 100×/1.45 N.A. TIRF objective from Nikon. […]
The pro-inflammatory mediator TNF-α inhibits suppressive activity and down-regulates Foxp3 in human Treg (Valencia et al., “TNF Downmodulates the Function of Human CD4+CD25hi T-Regulatory Cells,” Blood 108(1):253-261 (2006); Zanin-Zhorov et al., “Protein Kinase C-Theta Mediates Negative Feedback on Regulatory T Cell Function,” Science 328(5976):372-376 (2010), both of which are hereby incorporated by reference in their entirety). To investigate whether Dlgh1 recruitment to IS correlates with suppressive function of Treg, Treg was incubated with TNF-α overnight and then analyzed Dlgh1 recruitment to the IS as described above. […]

[2] = system: Treg suppressive function; conditions: literature (Valencia et al.; Zanin-Zhorov et al.); cited from earlier work
Foxp3 = conditions: literature (Valencia et al.; Zanin-Zhorov et al.); cited from earlier work
[3] = system: Treg suppressive function; assay: In vitro suppression assay (Tregs co-cultured with CD4+CD25- T cells at 1:3); assay type: cell-based, human; conditions: pre-treatment of Treg at 1 μM for 30 minutes, supernatants after 48 hours
Procedure: In Vitro Suppression Assays—CD4^+CD25^+ T cells were treated or not, washed, and added at a ratio of 1:3 ([…]) to CD4^+CD25^− T cells at final concentration of 2×10^6 per mL (cytokine secretion) or 2×10^5 per mL (proliferation). The cells were co-cultured on anti-CD3 mAb (5 μg/mL) pre-coated 24-well plates for 24-48 hours (cytokine secretion) or 96 hours (proliferation). Human TNF-α (210-TA) was purchased from R&D Systems and added to co-cultures where indicated. […] Cytokine secretion was determined by ELISA as described (Zanin-Zhorov et al., “Protein Kinase C-Theta Mediates Negative Feedback on Regulatory T Cell Function,” Science 328:372-376 (2010), which is hereby incorporated by reference in its entirety), using human IFN-γ Cytoset (Biosource) and IL-17 and -4 (Invitrogen). Proliferation was assessed by carboxyfluorescein diacetate succinimidyl ester (CFSE) dilution as described (Tran et al., “Analysis of Adhesion Molecules, Target Cells, and Role of IL-2 in Human FOXP3+ Regulatory T Cell Suppressor Function,” J. Immunol. 182:2929-2938 (2009), which is hereby incorporated by reference in its entirety).

TNF-α
levels of Dlgh1 at IS in Tregs [1]: significantly reduced
suppressive activity of human Treg [2]: inhibits
Foxp3 in human Treg (Foxp3): down-regulates

C[S+]([O-])c1ccc(-c2nc(-c3ccncc3)c(-c3ccc(F)cc3)[nH]2)cc1 (stereo not shown) [SB203580]
ability of Treg to suppress IFN-γ secretion from CD4+CD25- T cells [3]: significantly down-regulated
